Experimental data: US20060141022A1, “Soft capsule preparation” (priority 2002, published 2006)

Assays:
[1] = Stability test of NIK-333 in sealed bottle (peroxide value); assay type: physicochemical; conditions: 25° C., sealed bottle in aluminium bag
Procedure: NIK-333 was filled in a sealed bottle and the bottle was put into an aluminium bag. This sample was stored at 25° C., and after 0, 1, and 3 months, the peroxide values were measured.

hepatoma = conditions: one-year oral administration, patients after therapeutic treatment of hepatoma; cited from earlier work

Peroxide value ([1]; storage period 0 month): 0.4 meq/kg
Peroxide value ([1]; storage period 1 month): 6.2 meq/kg
Peroxide value ([1]; storage period 3 months): 14.4 meq/kg
Compound: CC(C)=CCC/C(C)=C/CC/C(C)=C/C=C/C(C)=C/C(=O)O [NIK-333, (2E,4E,6E,10E )-3,7,11,15-Tetramethyl-2,4,6,10,14-hexadecapentaenoic acid]
recurrence of hepatoma (hepatoma): suppress recurrence of hepatoma
safety (hepatoma): high safety
survival rate of the patients (hepatoma): increased survival rate of the patients
